Measured values published in patent US20230042881A1, “MODULATORS OF INTEGRATED STRESS RESPONSE PATHWAY” (Praxis Biotech LLC, priority 2021, published 2023).
Read-outs that look alike come from different tables or passages of the source.

Assays:
[1] = tested on: ATF4; assay: ATF4 expression inhibition assay (ATF4 5′UTR luciferase reporter, thapsigargin-stressed); assay type: cell-based; conditions: Homo sapiens, HEK-293T, read-out: ATF4 inhibition
Description: The ATF4 reporter was prepared by fusing the human full length 5′UTR of ATF4 (NCBI Accession No. BC022088.2) upstream of the firefly luciferase coding sequence lacking the initiator methionine. The fused sequence was cloned into pLenti-EF1a-C-Myc-DDK-IRES-Puro cloning vector (Origen #PS100085) using standard methods.
HEK293T cells carrying the ATF4 luciferase reporter were plated on 96-well plates (Nunc) at 10,000 cells per well. Cells were treated two days after seeding with 100 nM thapsigargin (Tg) (Sigma-Aldrich #T9033) in the presence of different concentrations of selected compounds ranging from 0.1 nM to […]. Cells without treatment or cells treated with Tg alone were used as controls. Assay plates containing cells were incubated for 3 hours at 37° C.
Luciferase reactions were performed using Luciferase Assay System (Promega #E1501) as specified by the manufacturer. Luminescence was read with an integration time of 1 s and a gain of 110 using a Cytation-5 multi-mode microplate reader (BioTek).

[2] = tested on: Chinese hamster ovary (CHO) cells; assay: Protein synthesis assay (puromycin incorporation, Western blot); assay type: cell-based; conditions: Cricetulus griseus, read-out: % Protein synthesis relative to untreated (1 μM test compound)
Description: Chinese hamster ovary (CHO) cells were maintained at 37° C. and 5% CO2 in Dulbecco's Modified Eagle's Media (DMEM) supplemented with 10% fetal bovine serum, 2 mM L-glutamine, 100 U/ml penicillin, and 100 μg/ml streptomycin. After reaching 80% of confluence, cells were detached and seeded on 6 well plates in complete media, allowed to recover overnight and treated for 2 hours with 1 μM of the test compound (to assess protein synthesis levels in unstressed condition), or for 2 hours with 300 nM Tg in the presence of 1 μM of the test compound (to assess the recovery of protein synthesis in a stressed condition). Cells with Tg alone were used as controls.
After the 2 hours treatments, media were replaced by adding 10 μg/ml puromycin (Sigma Aldrich #P8833) in complete media for 30 min. Media were removed and cells were lysed with SDS-PAGE lysis buffer. Lysates were transferred to 1.5 ml tubes and sonicated for 3 min and total protein amount were quantified using BCA Protein Assay Kit (Pierce). Equal amount of protein (30 μg) was loaded on SDS-PAGE gels.
A HRP-conjugated secondary antibody (Rockland) was employed to detect immune-reactive bands using enhanced chemiluminescence (ECL Western Blotting Substrate, Pierce). Quantification of protein bands was done by densitometry using ImageJ software.
The percentage levels were normalized to the media alone condition, which correspond to 100% protein synthesis. […]

[3] = HEK293T cells carrying ATF4 luciferase reporter, 100 nM thapsigargin (Tg), 3 hours at 37° C.
[4] = unstressed CHO cells (without Tg), 2 hours, 1 μM test compound, media alone = 100%

IC50 [1, 3] | SMILES | IC50 ([1]; 3 h) | activity at 1 µM ([2]; CHO, 2 h) | activity at 1 µM [2, 4]
– | O=C(COc1ccc(Cl)cc1)N[C@H]1CC[C@H](C(=O)Nc2ccc3cc(Cl)ccc3n2)CC1 [Compound 1, trans-4-(2-(4-chlorophenoxy)acetamido)-N-(6-chloroquinolin-2-yl)cyclohexane-1-carboxamide] | < 10 nM | 91.8% | –
< 10 nM | O=C(N[C@H]1CC[C@H](C(=O)Nc2ccc3cc(Cl)ccc3n2)CC1)c1ccc2cc(Cl)ccc2n1 [Compound 2, trans-6-chloro-N-(4-((6-chloroquinolin-2-yl)carbamoyl)cyclohexyl)quinoline-2-carboxamide] | – | – | 163%
< 10 nM | O=C(COc1ccc(Cl)c(F)c1)N[C@H]1CC[C@H](C(=O)Nc2ccc3cc(Cl)ccc3n2)CC1 [Compound 3, trans-4-(2-(4-chloro-3-fluorophenoxy)acetamido)-N-(6-chloroquinolin-2-yl)cyclohexane-1-carboxamide] | – | – | 188%
< 10 nM | O=C(N[C@H]1CC[C@H](C(=O)Nc2ccc3cc(Cl)ccc3n2)CC1)c1cc2cc(Cl)ccc2o1 [Compound 4, trans-5-chloro-N-(4-((6-chloroquinolin-2-yl)carbamoyl)cyclohexyl)benzofuran-2-carboxamide] | – | – | 204%
< 10 nM | O=C(N[C@H]1CC[C@H](C(=O)Nc2ccc3cc(Cl)ccc3n2)CC1)C1CNc2cc(Cl)ccc2O1 (stereo partly drawn) [Compound 5, trans-6-chloro-N-(4-((6-chloroquinolin-2-yl)carbamoyl)cyclohexyl)-3,4-dihydro-2H-benzo[b][1,4]oxazine-2-carboxamide] | – | – | 195%
< 10 nM | O=C(N[C@H]1CC[C@H](C(=O)Nc2ccc3cc(Cl)ccc3n2)CC1)[C@H]1CNc2cc(Cl)ccc2O1 [Compound 6, trans-(R)-6-chloro-N-(4-((6-chloroquinolin-2-yl)carbamoyl)cyclohexyl)-3,4-dihydro-2H-benzo[b][1,4]oxazine-2-carboxamide] | – | – | 100%
< 10 nM | O=C(N[C@H]1CC[C@H](C(=O)Nc2ccc3cc(Cl)ccc3n2)CC1)[C@@H]1CNc2cc(Cl)ccc2O1 [Compound 7, trans-(S)-6-chloro-N-(4-((6-chloroquinolin-2-yl)carbamoyl)cyclohexyl)-3,4-dihydro-2H-benzo[b][1,4]oxazine-2-carboxamide] | – | – | 115%
10 to 100 nM | O=C(Nc1ccc2cc(Cl)ccc2n1)C1CCN(C[C@@H](O)COc2ccc(Cl)c(F)c2)CC1 [Compound 8, (R)-1-(3-(4-chloro-3-fluorophenoxy)-2-hydroxypropyl)-N-(6-chloroquinolin-2-yl)piperidine-4-carboxamide] | – | – | 156%
100 to 1000 nM | O=C(Nc1ccc2cc(Cl)ccc2n1)C1CCN(C[C@H](O)COc2ccc(Cl)c(F)c2)CC1 [Compound 9, (S)-1-(3-(4-chloro-3-fluorophenoxy)-2-hydroxypropyl)-N-(6-chloroquinolin-2-yl)piperidine-4-carboxamide] | – | – | 156%
10 to 100 nM | O=C(Nc1ccc2cc(Cl)ccc2n1)C1CCN(CCCOc2ccc(Cl)c(F)c2)CC1 [Compound 10, 1-(3-(4-chloro-3-fluorophenoxy)propyl)-N-(6-chloroquinolin-2-yl)piperidine-4-carboxamide] | – | – | 153%
100 to 1000 nM | O=C(Nc1ccc2cc(Cl)ccc2n1)[C@H]1CC[C@H](NCCOc2ccc(Cl)c(F)c2)CC1 [Compound 11, trans-4-(2-(4-chloro-3-fluorophenoxy)ethylamino)-N-(6-chloroquinolin-2-yl)cyclohexane-1-carboxamide] | – | – | 150%
< 10 nM | O=C(NN1CCC(C(=O)Nc2ccc3cc(Cl)ccc3n2)CC1)c1cc2cc(Cl)ccc2o1 [Compound 12, 1-(5-chlorobenzofuran-2-carboxamido)-N-(6-chloroquinolin-2-yl)piperidine-4-carboxamide] | – | – | 121%
– | O=C(COc1ccc(Cl)c(F)c1)N[C@H]1CC[C@H](C(=O)Nc2nc3cc(Cl)ccc3o2)CC1 [Compound 13, trans-4-(2-(4-chloro-3-fluorophenoxy)acetamido)-N-(5-chlorobenzo[d]oxazol-2-yl)cyclohexane-1-carboxamide] | 10 to 100 nM | 104% | –
– | O=C(C[C@H]1CC[C@H](NC(=O)COc2ccc(Cl)c(F)c2)CC1)Nc1ccc2cc(Cl)ccc2n1 [Compound 21, trans-2-(4-chloro-3-fluorophenoxy)-N-(4-(2-((6-chloroquinolin-2-yl)amino)-2-oxoethyl)cyclohexyl)acetamide] | 100 to 1000 nM | – | –
> 1000 nM | O=C(NC[C@H]1CC[C@H](C(=O)Nc2ccc3cc(Cl)ccc3n2)CC1)c1cnc(C(F)F)cn1 [Compound 23, trans-N-((4-((6-chloroquinolin-2-yl)carbamoyl)cyclohexyl)methyl)-5-(difluoromethyl)pyrazine-2-carboxamide] | – | – | –
100 to 1000 nM | O=C(NC[C@H]1CC[C@H](C(=O)Nc2ccc3cc(Cl)ccc3n2)CC1)c1ccc(C(F)(F)F)nc1 [Compound 37, trans-N-((4-((6-chloroquinolin-2-yl)carbamoyl)cyclohexyl)methyl)-6-(trifluoromethyl)nicotinamide] | – | – | –
100 to 1000 nM | O=C(NC[C@H]1CC[C@H](C(=O)Nc2ccc3cc(Cl)ccc3n2)CC1)c1ccc(C(F)(F)F)cn1 [Compound 38, trans-N-((4-((6-chloroquinolin-2-yl)carbamoyl)cyclohexyl)methyl)-5-(trifluoromethyl)picolinamide] | – | – | –
100 to 1000 nM | O=C(NC[C@H]1CC[C@H](C(=O)NCc2cc3cc(Cl)ccc3o2)CC1)c1ccc(C(F)(F)F)nc1 [Compound 51, N-((trans-4-(((5-chlorobenzofuran-2-yl)methyl)carbamoyl)cyclohexyl)methyl)-6-(trifluoromethyl)nicotinamide] | – | – | –
100 to 1000 nM | O=C(NC[C@H]1CC[C@H](C(=O)NCc2cc3cc(Cl)ccc3o2)CC1)c1ccc(C(F)(F)F)cn1 [Compound 52, N-((trans-4-(((5-chlorobenzofuran-2-yl)methyl)carbamoyl)cyclohexyl)methyl)-5-(trifluoromethyl)picolinamide] | – | – | –
– | O=C(CO[C@H]1C[C@@H](OC(F)(F)F)C1)N[C@H]1CC[C@H](C(=O)Nc2nc3cc(Cl)ccc3o2)CC1 [Compound 101, trans-N-(5-chlorobenzo[d]oxazol-2-yl)-4-(2-(cis-3-(trifluoromethoxy)cyclobutoxy)acetamido)cyclohexanecarboxamide] | 100 to 1000 nM | – | –
100 to 1000 nM | O=C(Nc1nc2cc(Cl)ccc2s1)[C@H]1CC[C@H](C(=O)N[C@H]2C[C@@H](OC(F)(F)F)C2)CC1 [Compound 123] | – | – | –

SMILES | IC50 [1, 3] | IC50 ([1]; 3 h) | activity at 1 µM ([2]; CHO, 2 h) | activity at 1 µM [2, 4]
O=C(CO[C@H]1C[C@@H](OC(F)(F)F)C1)NN1CCC(C(=O)NCc2cc3cc(Cl)ccc3o2)CC1 [Compound 56, N-((5-chlorobenzofuran-2-yl)methyl)-1-(2-(cis-3-(trifluoromethoxy)cyclobutoxy)acetamido)piperidine-4-carboxamide] | 100 to 1000 nM | – | – | –
O=C(CO[C@H]1C[C@@H](OC(F)(F)F)C1)N[C@H]1CC[C@H](C(=O)NCc2cc3cc(Cl)ccc3o2)CC1 [Compound 59, trans-N-((5-chlorobenzofuran-2-yl)methyl)-4-(2-(cis-3-(trifluoromethoxy)cyclobutoxy)acetamido)cyclohexane-1-carboxamide] | 100 to 1000 nM | – | – | –
O=C(CO[C@H]1C[C@@H](OC(F)(F)F)C1)N[C@H]1CC[C@H](C(=O)NCC2CNc3cc(Cl)ccc3O2)CC1 (stereo partly drawn) [Compound 79, trans-N-((6-chloro-3,4-dihydro-2H-benzo[b][1,4]oxazin-2-yl)methyl)-4-(2-(cis-3-(trifluoromethoxy)cyclobutoxy)acetamido)cyclohexane-1-carboxamide] | 100 to 1000 nM | – | – | –
O=C(CO[C@H]1C[C@@H](OC(F)(F)F)C1)NN1CCC(C(=O)NCC2CNc3cc(Cl)ccc3O2)CC1 (stereo partly drawn) [Compound 80, N-((6-chloro-3,4-dihydro-2H-benzo[b][1,4]oxazin-2-yl)methyl)-1-(2-(cis-3-(trifluoromethoxy)cyclobutoxy)acetamido)piperidine-4-carboxamide] | 100 to 1000 nM | – | – | –
O=C(CO[C@H]1C[C@@H](OC(F)(F)F)C1)NN1CCC(C(=O)Nc2nc3cc(Cl)ccc3s2)CC1 [Compound 121, N-(5-chlorobenzo[d]thiazol-2-yl)-1-(2-(cis-3-(trifluoromethoxy)cyclobutoxy)acetamido)piperidine-4-carboxamide] | 100 to 1000 nM | – | – | –
